Data published in ChEMBL document CHEMBL5053487 (J Med Chem, 2021).
pIC50: −log10 of the molar value.

How the values were obtained:
[1] = target: T1, Estrogen receptor (Homo sapiens, UniProt P03372)
T1 sequence (P03372 whole entry): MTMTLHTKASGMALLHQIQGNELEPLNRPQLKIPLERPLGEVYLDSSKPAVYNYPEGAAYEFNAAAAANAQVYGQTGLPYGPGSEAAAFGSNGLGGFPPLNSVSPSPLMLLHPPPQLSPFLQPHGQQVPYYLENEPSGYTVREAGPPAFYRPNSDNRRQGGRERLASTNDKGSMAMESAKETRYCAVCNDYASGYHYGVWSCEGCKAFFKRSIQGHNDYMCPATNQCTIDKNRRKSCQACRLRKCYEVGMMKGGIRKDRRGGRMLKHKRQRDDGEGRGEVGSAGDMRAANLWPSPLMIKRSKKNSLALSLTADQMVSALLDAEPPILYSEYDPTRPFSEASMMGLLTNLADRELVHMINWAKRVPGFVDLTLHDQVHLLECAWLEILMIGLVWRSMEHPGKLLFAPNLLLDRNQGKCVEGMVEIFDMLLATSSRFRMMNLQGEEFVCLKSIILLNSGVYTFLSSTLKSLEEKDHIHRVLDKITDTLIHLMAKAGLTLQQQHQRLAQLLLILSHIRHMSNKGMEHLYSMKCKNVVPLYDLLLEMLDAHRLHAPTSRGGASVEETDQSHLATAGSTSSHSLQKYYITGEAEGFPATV
Description: Antagonist activity at ERalpha (unknown origin) assessed as inhibition of fluorescein-labeled PGC-1 coactivator recruitment incubated for 30 mins measured by TR-FRET assay

[2] = Antiproliferative activity on human MCF7/TAMR-1 cells at 10 uM assessed as ratio of T/C measured up to 144 hrs relative to control; format: functional, MCF-7/TAMR-1
[3] = test system: MCF7; test: Antiproliferative activity on human MCF7 cells at 5 to 20 uM assessed as ratio of T/C measured up to 144 hrs relative to control; format: functional; settings: dose 5-20 µM

Structure (SMILES) | T/C [2] [%] | further results
CCC(=C(c1ccc(O)cc1)c1ccc(/C=C/C(=O)NCCCCCNC(=O)CCc2nc3cc(O)ccc3[nH]2)cc1)c1ccccc1 (mixture of isomers) | – | pIC50 [1]: 6.90
CCC(=C(c1ccc(O)cc1)c1ccc(/C=C/C(=O)NCCCCCCNC(=O)CCc2nc3cc(OC)ccc3[nH]2)cc1)c1ccccc1 (mixture of isomers) | 40 | –
CCC(=C(c1ccc(O)cc1)c1ccc(/C=C/C(=O)NCCCNC(=O)CCCn2c(=S)[nH]c3ccccc3c2=O)cc1)c1ccccc1 (mixture of isomers) | 40 | –
CCC(=C(c1ccc(O)cc1)c1ccc(/C=C/C(=O)NCCCCCCNC(=O)CCc2nc3cc(O)ccc3[nH]2)cc1)c1ccccc1 (mixture of isomers) | 40 | –
CCC(=C(c1ccc(O)cc1)c1ccc(/C=C/C(=O)NCCCNC(=O)c2ccc(N3CCN(C(=O)CCCn4c(=S)[nH]c5ccccc5c4=O)CC3)cc2)cc1)c1ccccc1 (mixture of isomers) | 40 | –
C[C@]12CC[C@@H]3c4ccc(O)cc4C[C@@H](CCCCCCCCC[S+]([O-])CCCC(F)(F)C(F)(F)F)[C@H]3[C@@H]1CC[C@@H]2O (stereo partly specified) [FULVESTRANT] | – | T/C [3]: 30%
